According to ChEMBL document CHEMBL4261654, “Synthesis and in vitro antitumor activity of novel alkenyl derivatives of pyridoxine, bioisosteric analogs of feruloyl methane” (Bioorg Med Chem, 2018):
Calls of active or inactive are those of the source. The calls are words filed in the database; no cut-off is given here.

Key:
[1] = tested on: HEK293; assay: Antiproliferative activity against human HEK293 cells after 72 hrs by MTT assay; assay type: cell-based; conditions: HEK293, 72 h
[2] = Antiproliferative activity against HSF cells after 72 hrs by MTT assay; assay type: cell-based; conditions: Homo sapiens
[3] = tested on: PC-3; assay: Cell cycle arrest in human PC3 cells assessed as accumulation at G2/M phase at 10 uM after 72 hrs by RNase/propidium iodide staining-based flow cytometric analysis (reference value: 20 +/- 3%); assay type: functional
[4] = Antioxidant activity assessed as ferric ion reducing activity at 20 to 320 umol after 20 mins by FRAP assay; assay type: functional
[5] = tested on: PC-3; assay: Cell cycle arrest in human PC3 cells assessed as accumulation at G0/G1 phase at 10 uM after 72 hrs by RNase/propidium iodide staining-based flow cytometric analysis (reference value: 61 +/- 3%); assay type: functional
[6] = tested on: M14; assay: Antiproliferative activity against human M14 cells after 72 hrs by MTT assay; assay type: functional, cell-based; conditions: M14, 72 h
[7] = tested on: PC-3; assay: Antiproliferative activity in human PC3 cells at 2 to 10 uM measured during 120 hrs each 15 mins by RTCA DP based cellular impedance analysis; assay type: functional, cell-based
[8] = tested on: PC-3; assay: Induction of mitochondrial membrane potential loss in human PC3 cells assessed as fluorescence intensity at 150 uM after 24 hrs by TMRE dye-based flow cytometric analysis (reference value: 10101 +/- 853); assay type: functional
[9] = tested on: PC-3; assay: Induction of apoptosis in human PC3 cells assessed as late apoptotic cells at 50 uM after 24 hrs by Annexin V-PE/7-AAD staining-based flow cytometric analysis (reference value: 8%); assay type: functional
[10] = tested on: PC-3; assay: Induction of apoptosis in human PC3 cells assessed as necrotic cells at 50 uM after 24 hrs by Annexin V-PE/7-AAD staining-based flow cytometric analysis (reference value: 14%); assay type: functional
[11] = tested on: PC-3; assay: Induction of apoptosis in human PC3 cells assessed as early apoptotic cells at 150 uM after 24 hrs by Annexin V-PE/7-AAD staining-based flow cytometric analysis (reference value: 2%); assay type: functional
[12] = tested on: OVCAR-4; assay: Antiproliferative activity against human OVCAR4 cells after 72 hrs by MTT assay; assay type: functional, cell-based; conditions: OVCAR-4, 72 h
[13] = tested on: SNB-19; assay: Antiproliferative activity against human SNB19 cells after 72 hrs by MTT assay; assay type: functional, cell-based; conditions: SNB-19, 72 h
[14] = tested on: PC-3; assay: Antiproliferative activity against human PC3 cells after 72 hrs by MTT assay; assay type: functional, cell-based; conditions: PC-3, 72 h
[15] = tested on: PC-3; assay: Induction of apoptosis in human PC3 cells assessed as late apoptotic cells at 150 uM after 24 hrs by Annexin V-PE/7-AAD staining-based flow cytometric analysis (reference value: 8%); assay type: functional
[16] = tested on: PC-3; assay: Induction of apoptosis in human PC3 cells assessed as intracellular ROS levels by measuring fluoresence intensity at 50 uM after 24 hrs by DCFH-DA staining-based flow cytometric analysis (reference value: 3176 +/- 398); assay type: functional
[17] = tested on: A498; assay: Antiproliferative activity against human A498 cells after 72 hrs by MTT assay; assay type: functional, cell-based; conditions: A498, 72 h
[18] = tested on: PC-3; assay: Induction of apoptosis in human PC3 cells assessed as viable cells at 50 uM after 24 hrs by Annexin V-PE/7-AAD staining-based flow cytometric analysis (reference value: 70%); assay type: functional; conditions: PC-3, 24 h, read-out: Activity
[19] = tested on: PC-3; assay: Antimigratory activity in human PC3 cells up to 50 uM measured during 120 hrs each 15 mins by RTCA DP based cellular impedance analysis; assay type: functional
[20] = tested on: PC-3; assay: Induction of apoptosis in human PC3 cells assessed as early apoptotic cells at 50 uM after 24 hrs by Annexin V-PE/7-AAD staining-based flow cytometric analysis (reference value: 2%); assay type: functional
[21] = tested on: PC-3; assay: Cell cycle arrest in human PC3 cells assessed as accumulation at S phase at 70 uM after 72 hrs by RNase/propidium iodide staining-based flow cytometric analysis (reference value: 17 +/- 1%); assay type: functional
[22] = tested on: HCT-116; assay: Antiproliferative activity against human HCT116 cells after 72 hrs by MTT assay; assay type: functional, cell-based; conditions: HCT-116, 72 h
[23] = tested on: PC-3; assay: Cell cycle arrest in human PC3 cells assessed as accumulation at G2/M phase at 70 uM after 72 hrs by RNase/propidium iodide staining-based flow cytometric analysis (reference value: 20 +/- 3%); assay type: functional
[24] = tested on: PC-3; assay: Induction of mitochondrial membrane potential loss in human PC3 cells assessed as fluorescence intensity at 50 uM after 24 hrs by TMRE dye-based flow cytometric analysis (reference value: 10101 +/- 853); assay type: functional
[25] = tested on: PC-3; assay: Induction of apoptosis in human PC3 cells assessed as intracellular ROS levels by measuring fluoresence intensity at 150 uM after 24 hrs by DCFH-DA staining-based flow cytometric analysis (reference value: 3176 +/- 398); assay type: functional
[26] = tested on: MDA-MB-231; assay: Antiproliferative activity against human MDA-MB-231 cells after 72 hrs by MTT assay; assay type: functional, cell-based; conditions: MDA-MB-231, 72 h
[27] = tested on: PC-3; assay: Cell cycle arrest in human PC3 cells assessed as accumulation at S phase at 10 uM after 72 hrs by RNase/propidium iodide staining-based flow cytometric analysis (reference value: 17 +/- 1%); assay type: functional
[28] = tested on: HCT-15; assay: Antiproliferative activity against human HCT15 cells after 72 hrs by MTT assay; assay type: functional, cell-based; conditions: HCT-15, 72 h
[29] = tested on: PC-3; assay: Cell cycle arrest in human PC3 cells assessed as accumulation at G0/G1 phase at 70 uM after 72 hrs by RNase/propidium iodide staining-based flow cytometric analysis (reference value: 61 +/- 3%); assay type: functional
[30] = tested on: PC-3; assay: Induction of apoptosis in human PC3 cells assessed as viable cells at 150 uM after 24 hrs by Annexin V-PE/7-AAD staining-based flow cytometric analysis (reference value: 70%); assay type: functional; conditions: PC-3, 24 h, read-out: Activity
[31] = tested on: NCI-H322M; assay: Antiproliferative activity against human NCI-H322M cells after 72 hrs by MTT assay; assay type: functional, cell-based
[32] = tested on: PC-3; assay: Antiproliferative activity in human PC3 cells up to 50 uM measured during 120 hrs each 15 mins by RTCA DP based cellular impedance analysis; assay type: functional
[33] = tested on: PC-3; assay: Induction of apoptosis in human PC3 cells assessed as necrotic cells at 150 uM after 24 hrs by Annexin V-PE/7-AAD staining-based flow cytometric analysis (reference value: 14%); assay type: functional
[34] = tested on: MCF7; assay: Antiproliferative activity against human MCF7 cells after 72 hrs by MTT assay; assay type: functional, cell-based; conditions: MCF7, 72 h

`COc1cc(/C=C/C(C)=O)ccc1O` [DEHYDROZINGERONE] showed an IC50 [1] of 64 µM, an IC50 [2] of 176 µM and an Activity [3] of 21%. For the same compound, the Activity [4] was “Active”, the Activity [5] was 60% and the IC50 [6] was 550 µM. The Activity [7] was “inactive”, the Flu intensity [8] was 7859 and the Activity [9] was 13%. It also gave an Activity [10] of 13%, an Activity [11] of 3% and an IC50 [12] of 139 µM. It also gave an IC50 [13] of 138 µM, an IC50 [14] of 68 µM and an Activity [15] of 16%. The Flu intensity [16] was 2024, the IC50 [17] was 125 µM and the viability at 50 µM [18] was 70%. The “inhibition (INH)” value [19] was 78%, the Activity [20] was 3% and the Activity [21] was 17%. The IC50 [22] was 70 µM, the Activity [23] was 31% and the Flu intensity [24] was 7701. It also gave a Flu intensity [25] of 7502, an IC50 [26] of 86 µM and an Activity [27] of 18%. It also gave an IC50 [28] of 65 µM, an Activity [29] of 49% and a viability at 150 µM [30] of 64%. For the same compound, the IC50 [31] was 96 µM, the “inhibition (INH)” value [32] was 47% and the Activity [33] was 16%. The IC50 [34] was 31 µM.
